Experimental data taken from article PMC10765869, “Synthesis, design, biological evaluation, and computational analysis of some novel uracil-azole derivatives as cytotoxic agents” (BMC Chemistry, 2024).
Like-named read-outs stand apart in the source and are kept apart here.

Tests used:
[1] = system: HEPG-2 (Hepatocellular carcinoma) cell line; assay: MTT assay, HEPG-2; type: cell-based, human; details: mean ± SD, triplicate
Excerpt: (§1) The cytotoxic activity of the designed compounds (4a-4l) was obtained by MTT assay (standard 3-(4,5-dimethylthiazol-yl)-2,5-diphenyl-tetrazolium bromide) according to our previous protocols. Two human cancer cell lines including MCF-7 (breast carcinoma) and HEPG-2 (Hepatocellular carcinoma) were purchased from the National Cell Bank of Iran (NCBI, Pasteur Institute, Tehran, Iran). RPMI 1640 culture media was used to culture cancer cell lines. The media was supplemented with 10% fetal bovine serum (FBS) and 1% penicillin–streptomycin (Gibco, USA), and the cells were kept at 37 °C in a humidified CO2 incubator. For the MTT assay, trypsin/EDTA 0.5% solution (Gibco/USA) was applied to harvest cells and seeded in 96-well microplates at a density of 1 × 10^4 cells per well [26]. Five different concentrations of the designed compounds and Cisplatin as the positive control (1–200 μM) were used for treatment in triplicate times. Three untreated wells were used as the negative control. After 72 h, the media was changed by 100 μL fresh MTT solution and incubated for 4 h at 37 °C in the incubator to obtain formazan purple crystals. Finally, the media was removed and 150 μL of DMSO was added and incubated at 37 °C in dark for 10 min to dissolve the crystals. The absorbance of individual wells was read at 490 nm using a microplate ELISA reader. Excel 2016 and Curve Expert 1.4 were used to analyze the data. The data were presented as mean ± SD for each analysis.

[2] = system: normal lung cell line (MRC-5); assay: MTT assay, MRC-5 normal cells; type: cell-based
[3] = system: MCF-7 (breast carcinoma) cell line; assay: MTT assay, MCF-7; type: cell-based, human; details: mean ± SD, triplicate
Excerpt: as §1

[4] = system: MCF-7 and HEPG-2 cell lines; assay: MTT assay, ranges over both cancer cell lines; type: cell-based; details: Homo sapiens; range spans both cell lines
Excerpt: as §1, with “Excel 2016 and Curve Expert 1.4 were used to analyze the data. The data were presented as mean ± SD for each analysis.” left out

[5] = system: a studied cancer cell line; set-up: method as in PMID 32736079; details: cited from earlier work
Huha cell line = system: Huha cell line; set-up: method as in PMID 33808444; details: cited from earlier work
Hela cell line = system: Hela cell line; set-up: method as in PMID 33808444; details: cited from earlier work
[6] = Homo sapiens, MRC5, read-out: IC50 ± SD, MRC-5

SMILES	IC50 ([1]; Homo sapiens, HepG2, 72 h) [µM]	IC50 [2, 6] [µM]	IC50 ([3]; Homo sapiens, MCF7, 72 h) [µM]	melting point [°C]	also measured
Cc1cccc(Cn2c(-n3cncn3)cc(=O)n(C)c2=O)c1 [Compound 4i, 3-methyl-1-(3-methylbenzyl)-6-(H1-1,2,4-triazole-1-yl) pyrimidine-2,4-(H1, H3) dione]	65.4 ± 2.15	> 200	43.1 ± 2.07	125 to 128	–
Cc1ccc(Cn2c(-n3ccnc3)cc(=O)n(C)c2=O)cc1 [Compound 4c, 3-methyl-1-(4-methylbenzyl)-6-(H1-imidazole-1-yl) pyrimidine-2,4-(H1, H3) dione]	27.2 ± 1.66	101 ± 3.02	26.1 ± 4.41	100 to 102	IC50 [4]: 17.1 to 48.5 µM
Cn1c(=O)cc(-n2cncn2)n(Cc2ccccc2)c1=O [Compound 4h, 3-methyl-1-(benzyl)-6-(H1-1,2,4-triazole-1-yl) pyrimidine-2,4-(H1, H3) dione]	–	–	–	91 to 93	–
Cc1nccn1-c1cc(=O)n(C)c(=O)n1Cc1ccccc1 [Compound 4e, 3-methyl-1-(benzyl) 6-(2-methyl-H1-imidazol-1-yl) pyrimidine-2,4-(H1, H3) dione]	–	> 200	92 ± 2.19	138 to 140	–
O=c1[nH]c(=O)n(Cc2ccc(-c3noc(-c4ccc(-c5ccccc5)cc4)n3)cc2)cc1F [A]	–	–	–	–	IC50 [5]: 0.88 µM
Cc1cccc(Cn2c(-n3ccnc3)cc(=O)n(C)c2=O)c1 [Compound 4b, 3-methyl-1-(3-methylbenzyl)-6-(H1-imidazole-1-yl) pyrimidine-2,4-(H1, H3) dione]	48.5 ± 1.97	61.8 ± 2.3	17.1 ± 1.3	123 to 124	IC50 [4]: 17.1 to 48.5 µM
Cc1ccc(Cn2c(-n3cncn3)cc(=O)n(C)c2=O)cc1 [Compound 4j, 3-methyl-1-(4-methylbenzyl)-6-(H1-1,2,4-triazole-1-yl) pyrimidine-2,4-(H1, H3) dione]	7.56 ± 5.28	57.3 ± 2.08	16.2 ± 1.02	116 to 118	–
Cc1nccn1-c1cc(=O)n(C)c(=O)n1Cc1ccc(Br)cc1 [Compound 4g, 3-methyl-1-(4-bromobenzyl)-6-(2-methyl-H1-imidazole-1-yl) pyrimidine-2,4-(H1, H3) dione]	106 ± 3.03	> 200	109 ± 3.74	160 to 162	–
Cc1ccc(Cn2cc(Cn3c(Cl)cc(=O)n(C)c3=O)nn2)cc1 [B]	–	–	–	–	IC50 (Huha cell line): 7.7 µM; IC50 (Hela cell line): 4.5 µM
Cn1c(=O)cc(-n2ccnc2)n(Cc2ccccc2)c1=O [Compound 4a, 3-methyl-1-(benzyl)-6-(H1-imidazole-1-yl) pyrimidine-2,4-(H1, H3) dione]	193 ± 7.98	> 200	150.5 ± 0.77	138 to 142	–
N.N.[Cl][Pt][Cl] [Cis platin, Cisplatin, reference compound]	–	–	–	–	IC50 ([1]; 72 h): 15.9 ± 1.83 µM; IC50 ([2]; read-out: IC50 ± SD, MRC-5): 45.2 ± 2.5 µM; IC50 ([3]; 72 h): 20.7 ± 0.83 µM
Cn1c(=O)cc(-n2ccnc2)n(Cc2ccc(Br)cc2)c1=O [Compound 4d, 3-methyl-1-(4-bromobenzyl)-6-(H1-imidazole-1-yl) pyrimidine-2,4-(H1, H3) dione]	177 ± 4.06	> 200	131 ± 3.1	110 to 113	–
Cc1ccc(Cn2c(-n3ccnc3C)cc(=O)n(C)c2=O)cc1 [Compound 4f, 3-methyl-1-(4-methylbenzyl)-6-(2-methyl-H1-imidazole-1-yl) pyrimidine-2,4-(H1, H3) dione]	55.9 ± 6.58	> 200	65.5 ± 3.1	120 to 122	–
